The record followed here is patent US7579324B2, “Conjugates of biologically active compounds, methods for their preparation and use, formulation and pharmaceutical applications thereof” (c-a-i-r biosciences GmbH, priority 2002, dated 2009).

The test system of the assay is white blood cells. As to the kind of experiment: Immune cell selective uptake (immune selectivity ratio) in blood cell preparations. The format is cell-based, mammalian. Also noted: key: Y: Compounds exhibiting high uptake; N: similar structures that do not. To be noted: uptake in white cells from blood cell mix; Y/N. How it is done: Freshly drawn heparinised blood or buffy coat preparations are used for the determination of immune cell partition ratios. Buffy coat preparations are preferred. These may be obtained from donor blood by simple centrifugation of whole blood (4795 g for 10 minutes). Following centrifugation, plasma is collected from the surface, after which immune cells are expressed from the donor bags along with the erythrocytes lying immediately below the leukocyte layer. This ensures high yields and a sufficient population of erythrocytes for partition. 5 ml of the resulting cell suspension are dispensed into T25 culture flasks. Substrates are added to a final concentration between 1 and 10 μM and the suspensions incubated at 37° C., in a 5% CO2 atmosphere. For analysis of uptake kinetics, samples are withdrawn at 0, 2, 5, 10, 30, 60, 90, 180, or 240 min after substrate addition. For screening purposes, samples are taken at 0 and 120 minutes.
Cell fractions were prepared using density gradient centrifugation. Mononuclear cells and polymorphonuclear cells are separated from erythrocytes essentially by layering the cell suspension on a viscous medium typically composed of a solution containing Ficoll or similar (commercial suppliers include: Lymphoprep, Axis Shield, 1031966; Lymphoflot HLA, 824010; or PMN Separation Medium Robbins Scientific 1068-00-0). The layered suspension is then centrifuged at 600 g, 20 min, after which the cell fractions and the plasma (incubation medium) fraction are removed by gentle aspiration, washed twice in PBS buffer, followed by estimation of the cell number and pellet volume.
Uptake of fluorescent compounds is monitored using fluorescence microscopy. Excitation and emission wavelengths depend of the fluorescence label in use. A typical label is a methoxy coumarin for which the appropriate wavelengths are 360 and 450 nm respectively. Fluorescent analogs of the compounds under study permit the estimation of appropriate uptake intervals as well as the likely intracellular distribution of the compounds. Fluorescent analogs also allow the estimation of losses in washing or other cell manipulations.
Cell preparations are lysed in water and the debris sedimented at 16100 g, 10 min. The supernatant is recovered and sub-sampled for protein and DNA content. Protein in the supernatant is precipitated by bringing the solution to […] ethanol and centrifuging again at 16100 g, 10 min.
Compound uptake is normalized according to cytoplasmic volume of cells in order to obtain the average concentration in the cells. Cell volume is estimated by correlation of DNA, protein or haem content of lysed cell aliquots to cell number and packed volume prior to lysis.
Cell lysates are analysed using a HP 1100 HPLC System (Agilent Technologies, Waldbronn, Germany) with a Kromasil 3.5μ C18, 50×2.0 mm column and guard cartridge system (both, Phenomenex, Aschaffenburg, Germany) run at 30° C. A gradient elution was performed using water, 0.05% formic acid (A) and acetonitrile 0.05% formic acid (B) (0 min. 5% B, 2.5 min 5% B, 2.8 min 40% B, 10.5 min 85% B, 12.0 min 95% B, 16.5 min 95% B) at a flow rate of 300 μl/min. Re-equilibration of column was at 5% B, at a flow rate of 750 μl/min for 2.4 min. The HPLC-eluate from retention time 0.0 min to 2.5 min was directed directly to waste. Detection was via a UV cell at 214 nm followed by a ⅙ split to an An API-qTOF 1 (Micromass, Manchester, UK) mass spectrometer, (calibrated daily using a mixture of NaI, RbI and CsI). The mass spectrometer is routinely operated in the positive electrospray ionization mode using the following settings: Capillary voltage 4000 V; cone voltage 30 V; RF Lens offset 0.38 V; source block temperature 80° C.; desolvation gas temperature 140° C.; desolvation gas 240 l/h; LM/HM Resolution 0.0; Collision energy 4.0 V; Ion energy 5.0 V.
Masses are monitored according to the known or expected M/Z ratios. […]
Take `COc1ccc(/C(=C\C(C)=O)CSc2nnc(-c3ccc([NH+]([O-])O)o3)s2)c(C)c1` (stereo not drawn) [Compound 38]: the Concentrative uptake result was “N”.

Take `CN(C)c1cccc2c(S(=O)(=O)NC(C)(CO)CO)cccc12` [Compound 32]: the Concentrative uptake entry is on record as “N”.

`COc1cc(C)c(/C(=C\C(C)=O)CC(NC(=O)CCN)C(=O)O)cc1OC` (stereo not drawn) [Compound 12]: the Concentrative uptake result is recorded as “N”.

On to `CN(C)c1cccc2c(S(=O)(=O)NN3CCN(CCO)CC3)cccc12` [Compound 26], for which the Concentrative uptake result is listed as “Y”.

On to `CN(C)c1cccc2c(S(=O)(=O)Nc3c[nH]c(=O)[nH]c3=O)cccc12` [Compound 34], for which the Concentrative uptake entry is reported as “N”.

For the compound `CN(C)c1cccc2c(S(=O)(=O)N3CCN(CCO)CC3)cccc12` [Compound 31], the Concentrative uptake entry is reported as “N”.

In the case of `CC(C)(C)OC(=O)NC(CSCC(=O)NCCNc1cccc2c(S(=O)(=O)O)cccc12)C(=O)O` (stereo not drawn) [Compound 8], the Concentrative uptake result is “Y”.

As for `O=c1ccc2cc(O[C@@H]3O[C@H](CO)C(O)[C@H](O)C3O)c(O)cc2o1` (stereo partly drawn) [Compound 1], the Concentrative uptake result was “Y”.

Consider `Cc1cc(=O)oc2cc(SCC(=O)NC3CCOC3=O)ccc12` (stereo not drawn) [Compound 22], for which the Concentrative uptake entry was “Y”.

As to `COc1cc(C)c(/C(=C\C(C)=O)CC(N)C(=O)O)cc1OC` (stereo not drawn) [Compound 4], the Concentrative uptake result is listed as “Y”.

As to `CN(C)c1cccc2c(S(=O)(=O)N(CCO)CCO)cccc12` [Compound 33], the Concentrative uptake entry is on record as “N”.

Take `COC(=O)C1CN(S(=O)(=O)c2cccc3c(N(C)C)cccc23)CCC1=O` (stereo not drawn) [Compound 29]: the Concentrative uptake result is recorded as “N”.

Regarding `COc1ccc2c(CSc3ncnc4[nH]cnc34)cc(=O)oc2c1` [Compound 9], the Concentrative uptake result is “N”.

Regarding `COc1cc(C)c(/C(=C\C(C)=O)CC(NC(=O)C(N)CCC(=O)O)C(=O)O)cc1OC` (stereo not drawn) [Compound 14], the Concentrative uptake entry is “N”.

For the compound `CN(C)c1cccc2c(S(=O)(=O)Nc3cc(O)[nH]n3)cccc12` [Compound 27], the Concentrative uptake entry is given as “Y”.

For `Cc1cc(=O)oc2cc(SCC(=O)NN3CCN(CCO)CC3)ccc12` [Compound 24], the Concentrative uptake result is “N”.

Regarding `CN(C)c1cccc2c(S(=O)(=O)N3CCN(c4ccc(O)cc4)CC3)cccc12` [Compound 30], the Concentrative uptake result is “N”.

Consider `COc1cc2oc(=O)cc(CC(NC(=O)CN)C(=O)O)c2cc1OC` (stereo not drawn) [Compound 10], for which the Concentrative uptake result was “N”.

Regarding `CN(C)c1cccc2c(S(=O)(=O)Nc3ccc(C(=O)O)cc3O)cccc12` [Compound 35], the Concentrative uptake result was “N”.

With `CC[C@H]1OC(=O)[C@H](C)[C@@H](OC2C[C@@](C)(OC)[C@@H](O)[C@H](C)O2)[C@H](C)[C@@H](OC2O[C@H](C)C[C@H](N(C)C)[C@H]2O)[C@](C)(O)C[C@@H](C)/C(=N/OCc2cc(=O)oc3cc(OC)c(OC)cc23)[C@H](C)[C@@H](O)[C@]1(C)O` (stereo partly drawn) [Compound 3], the Concentrative uptake result is “Y”.

Consider `CN(C)c1cccc2c(S(=O)(=O)NCCCN3CCCC3=O)cccc12` [Compound 37], for which the Concentrative uptake result was “N”.

For `Cc1cc(=O)oc2cc(SCC(=O)NCCN3CCOCC3)ccc12` [Compound 23], the Concentrative uptake result was “Y”.

In the case of `O=C(CSc1ncnc2[nH]cnc12)NCCNc1cccc2c(S(=O)(=O)O)cccc12` [Compound 15], the Concentrative uptake entry is on record as “Y”.

On to `Cc1cc(=O)oc2cc(SCC(=O)NN3CCOCC3)ccc12` [Compound 25], for which the Concentrative uptake result is “N”.

`CCN(CC)c1ccc(NS(=O)(=O)c2cccc3c(N(C)C)cccc23)cc1` [Compound 36]: the Concentrative uptake result is on record as “N”.

Turning to `CC[C@H]1OC(=O)[C@H](C)[C@@H](O[C@H]2C[C@@](C)(OC)[C@@H](O)[C@H](C)O2)[C@H](C)[C@@H](OC2O[C@H](C)C[C@H](N(C)C)[C@H]2O)[C@](C)(O)C[C@@H](C)CN(Cc2cc(=O)oc3cc(OC)ccc23)[C@H](C)[C@@H](O)[C@]1(C)O` (stereo partly drawn) [Compound 7], the Concentrative uptake result was “Y”.

As to `CN(C)c1cccc2c(S(=O)(=O)NNC(=N)N)cccc12` [Compound 11], the Concentrative uptake result is “N”.
